The values below are quoted from earlier work in paper PMC9516332 (Frontiers in Oncology, 2022).

The structures appear in SMILES notation. Like-named read-outs stand apart in the source and are kept apart here.

In data set [1] the target is panel of 255 wild-type kinases (Homo sapiens, UniProt P24941). Particulars: 1 µmol/L single concentration, cited from earlier work; for %-inhibition CDK2/CycA2: CDK2/CycA2 kinase assay; for %-inhibition CDK2/CycE1: CDK2/CycE1 kinase assay.
In data set [2] the target is panel of 255 wild-type kinases (Homo sapiens, UniProt Q00535). Particulars: CDK5/p25 kinase assay, 1 µmol/L single concentration, cited from earlier work.
Data set [3] addresses panel of 255 wild-type kinases (Homo sapiens, UniProt P51451). As to conditions: BLK kinase assay, 1 µmol/L single concentration, cited from earlier work.
Data set [4] deals with T1, panel of 255 wild-type kinases (Homo sapiens, UniProt Q9BZL6).
T1 sequence (Q9BZL6 1-878): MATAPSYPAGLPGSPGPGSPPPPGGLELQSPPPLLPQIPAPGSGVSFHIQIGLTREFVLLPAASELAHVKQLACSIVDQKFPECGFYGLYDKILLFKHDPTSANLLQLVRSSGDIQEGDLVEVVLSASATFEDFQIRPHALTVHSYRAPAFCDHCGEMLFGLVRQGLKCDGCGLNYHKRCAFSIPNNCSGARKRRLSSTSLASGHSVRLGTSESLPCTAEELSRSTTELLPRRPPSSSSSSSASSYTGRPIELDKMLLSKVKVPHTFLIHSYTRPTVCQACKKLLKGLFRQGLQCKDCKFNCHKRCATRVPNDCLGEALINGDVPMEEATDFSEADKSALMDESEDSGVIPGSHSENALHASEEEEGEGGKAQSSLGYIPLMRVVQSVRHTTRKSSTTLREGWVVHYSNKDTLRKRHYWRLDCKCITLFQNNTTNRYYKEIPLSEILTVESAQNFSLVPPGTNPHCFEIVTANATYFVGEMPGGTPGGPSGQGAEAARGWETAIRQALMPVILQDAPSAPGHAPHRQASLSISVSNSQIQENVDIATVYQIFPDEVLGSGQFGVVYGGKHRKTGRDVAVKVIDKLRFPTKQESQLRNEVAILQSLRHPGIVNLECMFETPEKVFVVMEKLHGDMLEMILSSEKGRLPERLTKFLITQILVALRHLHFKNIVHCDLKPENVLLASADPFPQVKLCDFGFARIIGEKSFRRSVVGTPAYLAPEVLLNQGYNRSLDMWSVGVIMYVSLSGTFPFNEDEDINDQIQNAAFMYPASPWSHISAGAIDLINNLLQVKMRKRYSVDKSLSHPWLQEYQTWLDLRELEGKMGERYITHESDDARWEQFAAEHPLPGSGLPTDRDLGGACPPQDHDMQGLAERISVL
As to conditions: kinase PKD2, 1 µmol/L single concentration, cited from earlier work.

The target in data set [5] is panel of 255 wild-type kinases (Homo sapiens, UniProt P08069). Particulars: kinase IGF1R, 1 µmol/L single concentration, cited from earlier work.
For data set [6], the target named is panel of 255 wild-type kinases (Homo sapiens, UniProt P07947). Particulars: kinase YES, 1 µmol/L single concentration, cited from earlier work.
In data set [7] the target is panel of 255 wild-type kinases (Homo sapiens, UniProt Q9H422). Particulars: kinase HIPK3, 1 µmol/L single concentration, cited from earlier work.
The target of data set [8] is panel of 255 wild-type kinases (Homo sapiens, UniProt P09619). Particulars: kinase PDGFRβ, 1 µmol/L single concentration, cited from earlier work.
Data set [9] addresses T2, panel of 255 wild-type kinases (Homo sapiens, UniProt Q13976).
T2 sequence (Q13976 1-671): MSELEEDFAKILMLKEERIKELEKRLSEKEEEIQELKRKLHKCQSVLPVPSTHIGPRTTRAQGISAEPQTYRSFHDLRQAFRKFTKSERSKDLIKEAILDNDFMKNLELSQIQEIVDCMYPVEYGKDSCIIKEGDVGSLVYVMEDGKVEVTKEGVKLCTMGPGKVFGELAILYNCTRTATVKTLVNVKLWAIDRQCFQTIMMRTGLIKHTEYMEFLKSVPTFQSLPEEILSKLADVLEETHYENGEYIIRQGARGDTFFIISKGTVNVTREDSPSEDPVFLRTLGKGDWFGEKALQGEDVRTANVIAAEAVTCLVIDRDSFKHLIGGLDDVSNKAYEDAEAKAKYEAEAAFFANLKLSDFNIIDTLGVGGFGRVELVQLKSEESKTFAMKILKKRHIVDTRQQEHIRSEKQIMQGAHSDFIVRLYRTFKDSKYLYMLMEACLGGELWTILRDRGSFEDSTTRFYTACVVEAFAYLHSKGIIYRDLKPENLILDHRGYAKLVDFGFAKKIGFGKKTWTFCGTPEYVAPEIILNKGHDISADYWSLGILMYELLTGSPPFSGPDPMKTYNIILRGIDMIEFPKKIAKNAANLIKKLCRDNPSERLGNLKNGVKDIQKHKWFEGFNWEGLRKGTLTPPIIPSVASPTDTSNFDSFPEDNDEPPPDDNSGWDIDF
Particulars: kinase PGK, 1 µmol/L single concentration, cited from earlier work.

Data set [10] addresses panel of 255 wild-type kinases (Homo sapiens, UniProt P29597). As to conditions: kinase TYK2, 1 µmol/L single concentration, cited from earlier work.
Data set [11] addresses panel of 255 wild-type kinases (Homo sapiens, UniProt Q8IY84). Particulars: NIM1K; 1 µmol/L single concentration; ref DOI: 10.1158/1535-7163.MCT-18-0877; cited from earlier work.
The target in data set [12] is panel of 255 wild-type kinases (Homo sapiens, UniProt Q8IU85). As to conditions: CaMK1δ kinase assay, 1 µmol/L single concentration, cited from earlier work.
Setting [13] is: ref DOI: 10.1158/1535-7163.MCT-18-0877.
[14] abbreviates: ref DOI: 10.1371/journal.pone.0092146.

In the case of `CC#CC(=O)N1CCC[C@H]1c1nc(-c2ccc(C(=O)Nc3ccccn3)cc2)c2c(N)nccn12` [acalabrutinib], in data set [1] (setting [13]), the “%-inhibition CDK2/CycA2” value is on record as -5% and the “%-inhibition CDK2/CycE1” value is -5%. The “%-inhibition CDK5/p25” value in data set [2] (setting [13]) is -19%. Further, the “%-inhibition BLK” value in [3] (setting [13]) is recorded as 8.43%. Besides, in data set [4] (setting [13]), the “%-inhibition at 1 µmol/L, PKD2” value is given as -10%. Moreover, the “%-inhibition at 1 µmol/L, IGF1R” value in data set [5] (setting [13]) is given as 0.466%. In addition, in [6] (setting [13]), the “%-inhibition at 1 µmol/L, YES” value is 22%. In addition, the “%-inhibition at 1 µmol/L, HIPK3” value in [7] (setting [13]) is given as -12%. For the same molecule, the “%-inhibition at 1 µmol/L, PDGFRβ” value in [8] (setting [13]) is listed as 5.36%. Further, in data set [9] (setting [13]), the “%-inhibition at 1 µmol/L, PGK” value is listed as -3.7%. Further, the “%-inhibition at 1 µmol/L, TYK2” value in [10] (setting [13]) was 13%. For the same molecule, the “%-inhibition, NIM1K” value in [11] was -7%. Moreover, the “%-inhibition CaMK1δ” value in data set [12] (setting [13]) was -5%.

In the case of `C[C@@H](Oc1cc(-c2cnn(C3CCNCC3)c2)cnc1N)c1c(Cl)ccc(F)c1Cl` [crizotinib], in data set [1] (setting [14]), the “%-inhibition CDK2/CycA2” value is reported as 3% and the “%-inhibition CDK2/CycE1” value was -14%. Moreover, in data set [2] (setting [14]), the “%-inhibition CDK5/p25” value was -8%. The “%-inhibition at 1 µmol/L, IGF1R” value in data set [5] (setting [14]) was 80%. Further, the “%-inhibition at 1 µmol/L, YES” value in [6] (setting [14]) is recorded as 65%. Further, the “%-inhibition at 1 µmol/L, HIPK3” value in [7] (setting [14]) is -6%. Moreover, in data set [8] (setting [14]), the “%-inhibition at 1 µmol/L, PDGFRβ” value is recorded as 18%. Moreover, the “%-inhibition at 1 µmol/L, PGK” value in data set [9] (setting [14]) is listed as -2.6%. The “%-inhibition at 1 µmol/L, TYK2” value in data set [10] (setting [14]) was 21%. The “%-inhibition CaMK1δ” value in [12] (setting [14]) is -4%.

Regarding `CC(C)(C)c1nc(-c2cccc(NS(=O)(=O)c3c(F)cccc3F)c2F)c(-c2ccnc(N)n2)s1` [dabrafenib], in [2] (setting [14]), the “%-inhibition CDK5/p25” value is given as 22%. The “%-inhibition BLK” value in data set [3] (setting [14]) is 80%. Besides, the “%-inhibition at 1 µmol/L, PKD2” value in [4] (setting [14]) is recorded as 82%. Further, the “%-inhibition at 1 µmol/L, HIPK3” value in [7] (setting [14]) is reported as 65%. Further, the “%-inhibition at 1 µmol/L, TYK2” value in data set [10] (setting [14]) was 10%.

On to `C=CC(=O)N1CCC[C@@H](n2nc(-c3ccc(Oc4ccccc4)cc3)c3c(N)ncnc32)C1` [ibrutinib], for which, in data set [1] (setting [13]), the “%-inhibition CDK2/CycA2” value was -12% and the “%-inhibition CDK2/CycE1” value is -8%. For the same molecule, the “%-inhibition CDK5/p25” value in data set [2] (setting [13]) was -5%. Further, in [3] (setting [13]), the “%-inhibition BLK” value is 101%. Further, in data set [4] (setting [13]), the “%-inhibition at 1 µmol/L, PKD2” value is on record as -3.2%. Also, the “%-inhibition at 1 µmol/L, IGF1R” value in data set [5] (setting [13]) is listed as 7.45%. For the same molecule, the “%-inhibition at 1 µmol/L, HIPK3” value in [7] (setting [13]) is 1.67%. The “%-inhibition at 1 µmol/L, PDGFRβ” value in data set [8] (setting [13]) was 55%. Besides, the “%-inhibition at 1 µmol/L, PGK” value in data set [9] (setting [13]) is listed as 1.89%. Moreover, the “%-inhibition at 1 µmol/L, TYK2” value in [10] (setting [13]) was 7%. Moreover, the “%-inhibition, NIM1K” value in [11] was -2.33%. Moreover, in [12] (setting [13]), the “%-inhibition CaMK1δ” value was 5%.

In the case of `CO[C@@H]1[C@H](N(C)C(=O)c2ccccc2)C[C@H]2O[C@]1(C)n1c3ccccc3c3c4c(c5c6ccccc6n2c5c31)C(=O)NC4` [midostaurin], in [1] (setting [13]), the “%-inhibition CDK2/CycA2” value was 52% and the “%-inhibition CDK2/CycE1” value is listed as 22%. The “%-inhibition BLK” value in data set [3] (setting [13]) is recorded as 84%. Moreover, the “%-inhibition at 1 µmol/L, IGF1R” value in [5] (setting [13]) is 24%. In addition, the “%-inhibition at 1 µmol/L, YES” value in data set [6] (setting [13]) is recorded as 89%. Further, the “%-inhibition at 1 µmol/L, PDGFRβ” value in data set [8] (setting [13]) is listed as 100%. Besides, in data set [9] (setting [13]), the “%-inhibition at 1 µmol/L, PGK” value is on record as 98%. Also, in data set [11], the “%-inhibition, NIM1K” value is reported as 1.15%.

For the molecule `CC(=O)Nc1cccc(-n2c(=O)n(C3CC3)c(=O)c3c(Nc4ccc(I)cc4F)n(C)c(=O)c(C)c32)c1` [trametinib], in data set [1] (setting [14]), the “%-inhibition CDK2/CycA2” value is reported as 24% and the “%-inhibition CDK2/CycE1” value was 2.59%. In addition, the “%-inhibition CDK5/p25” value in [2] (setting [14]) is 19%. In addition, the “%-inhibition BLK” value in data set [3] (setting [14]) is on record as -2.79%. For the same molecule, in data set [4] (setting [14]), the “%-inhibition at 1 µmol/L, PKD2” value is on record as -3.28%. Further, the “%-inhibition at 1 µmol/L, IGF1R” value in data set [5] (setting [14]) is listed as -10%. Moreover, the “%-inhibition at 1 µmol/L, YES” value in data set [6] (setting [14]) is reported as -1.63%. In data set [7] (setting [14]), the “%-inhibition at 1 µmol/L, HIPK3” value is 0.0849%. In data set [8] (setting [14]), the “%-inhibition at 1 µmol/L, PDGFRβ” value was 3.44%. Further, the “%-inhibition at 1 µmol/L, PGK” value in [9] (setting [14]) is given as -1.31%. Further, the “%-inhibition at 1 µmol/L, TYK2” value in [10] (setting [14]) is 2.16%. Also, the “%-inhibition CaMK1δ” value in data set [12] (setting [14]) is recorded as -3.3%.

For `CCCS(=O)(=O)Nc1ccc(F)c(C(=O)c2c[nH]c3ncc(-c4ccc(Cl)cc4)cc23)c1F` [vemurafenib], in [1] (setting [14]), the “%-inhibition CDK2/CycA2” value was -3% and the “%-inhibition CDK2/CycE1” value is recorded as -5%. Besides, in data set [2] (setting [14]), the “%-inhibition CDK5/p25” value was 5%. The “%-inhibition BLK” value in [3] (setting [14]) is reported as 52%. In addition, the “%-inhibition at 1 µmol/L, PKD2” value in data set [4] (setting [14]) is listed as -13%. For the same molecule, the “%-inhibition at 1 µmol/L, IGF1R” value in [5] (setting [14]) is recorded as 10%. In data set [6] (setting [14]), the “%-inhibition at 1 µmol/L, YES” value is listed as 74%. Further, the “%-inhibition at 1 µmol/L, HIPK3” value in data set [7] (setting [14]) is reported as -6%. In addition, in data set [8] (setting [14]), the “%-inhibition at 1 µmol/L, PDGFRβ” value is reported as 33%. Also, in data set [9] (setting [14]), the “%-inhibition at 1 µmol/L, PGK” value was -4.33%. In addition, the “%-inhibition at 1 µmol/L, TYK2” value in data set [10] (setting [14]) was 6%. Also, the “%-inhibition CaMK1δ” value in [12] (setting [14]) was -7%.
